Experimental data reported in patent US20230113847A1, “[…] IMMUNE RESPONSE WITH CUPROUS COMPLEXES” (C LAB PHARMA INTERNATIONAL, S.A., priority 2020, published 2023).

What was measured:
[1] = stated in description, relevance to route of administration
[2] = system: Lymphocytes; conditions: Day 28, twice daily administration; otherwise healthy subjects with chronic pain
Procedure: (§1) Ethics: This study was reviewed by the Natural Health Products Directorate (NHPD), Health Canada and a research ethics board. This study was conducted in accordance with the principles established in the Declaration of Helsinki and its subsequent amendments. Informed consent was obtained from each subject at the screening visit prior to any study related activities. The clinical trial was conducted at KGK Synergize Inc. (London, ON, Canada).
(§2) Sample Collection: As depicted in FIG. 1, blood was collected from participants on the initial screening (Day −1), the first day of administering the treatment composition (Day 0), and on Day 28. Collected blood was analyzed to determine the complete blood count (CBC), electrolyte composition, and liver enzymes composition according to standardized procedures at LifeLabs (London, ON, Canada).
(§3) Dosing Regimen: Each participant was randomly assigned an identifier code and placed in either the Cunermuspir or placebo treatment groups at a 1:1 ratio. Participants were given 2 capsules on Day 0 and instructed to take the contents sublingually with a small meal. Starting on Day 1, participants were instructed to take one capsule orally in the morning with breakfast, and one capsule orally between lunch and dinner, with food, for a total of 2 capsules daily over the course of the study. Participants were instructed to take all capsules with adequate, but not excessive, amounts of liquid.

[3] = system: Neutrophil to Lymphocyte Ratio; conditions: Day 28, twice daily administration
Procedure: as §1, §2, §3

[4] = system: Neutrophils; conditions: Day 28, twice daily administration; otherwise healthy subjects with chronic pain
Procedure: as §1, §2, §3

[5] = system: neuromuscular pain; conditions: Day 28 in comparison to Day 0; subjects with neuromuscular pain; twice daily administration; placebo group showed upward trend
From the text: as §3

SMILES | pH of the complex [1] | lymphocyte numbers relative to the placebo group [2] | neutrophil to lymphocyte ratio relative to the placebo group [3] | neutrophil numbers relative to the placebo group [4] | SQIR scores in Symptom, Impact and Function Domains [5]
NCC(=O)[O-].[Cu+] [Copper (I) glycinate, cuprous glycinate] | more neutral pH |  |  |  | 
O=C(O)c1cccnc1.[Cu+] [Cu(I)NA2, cuprous nicotinic acid] | acidic pH | significant increase | significant decrease | significant decrease | decreased scores
